Reference: ChEMBL document CHEMBL1154410, “In vivo efficacy of a novel oxazolidinone compound in two mouse models of infection” (Antimicrob Agents Chemother, 2007)
In brackets after ≈: the same amount, converted by molar mass. Activity calls are given as the source filed them. The calls are words filed in the database; no cut-off is given here.

Tests used:
Staphylococcus aureus [1] = experiment: Antibacterial activity against methicillin-susceptible Staphylococcus aureus Smith infected in C3H mouse assessed as reduction in log number of CFU at 25 mg/kg/day, po administered within 15 mins of infection measured after 48 hrs by organ burden assay relative to control; type: functional
Enterococcus = experiment: Antibacterial activity against vancomycin-resistant Enterococcus spp.; type: functional, organism-based
Staphylococcus aureus [2] = experiment: Antibacterial activity against methicillin-susceptible Staphylococcus aureus Smith infected in C3H mouse assessed as reduction in log number of CFU at 25 mg/kg/day, iv administered within 15 mins of infection measured after 48 hrs by organ burden assay relative to control; type: functional
Staphylococcus aureus [3] = experiment: Antibacterial activity against methicillin-susceptible Staphylococcus aureus Smith infected in C3H mouse assessed as eradication at 12.5 mg/kg/day, po administered within 15 mins of infection assessed per gram of kidney measured after 48 hrs by organ burden assay relative to control; type: functional
Staphylococcus aureus [4] = experiment: Antibacterial activity against methicillin-resistant Staphylococcus aureus; type: functional, organism-based
Staphylococcus aureus [5] = experiment: (§1) Antibacterial activity against methicillin-resistant Staphylococcus aureus COL infected in po dosed DBA/2 mouse localized infection model assessed as log reduction in CFU per gram of thigh at 5 mg/kg, po administered 2 hrs postinfection thrice daily for 1 day and once daily for 5 days measured after 48 hrs by organ burden assay relative to control; type: functional
Staphylococcus aureus [6] = experiment: as §1, with “mg/kg, iv” for “mg/kg, po”, “for 1 day” for “for 5 days”; type: functional
Staphylococcus aureus [7] = experiment: Antibacterial activity against methicillin-susceptible Staphylococcus aureus Smith infected in C3H mouse assessed as eradication at 12.5 mg/kg/day, iv administered within 15 mins of infection assessed per gram of kidney measured after 48 hrs by organ burden assay relative to control; type: functional
Staphylococcus aureus [8] = experiment: Antibacterial activity against methicillin-susceptible Staphylococcus aureus Smith infected in C3H mouse assessed as reduction in log number of CFU at 6.25 mg/kg/day, po administered within 15 mins of infection measured after 48 hrs by organ burden assay relative to control; type: functional
Staphylococcus aureus [9] = experiment: Antibacterial activity against methicillin-susceptible Staphylococcus aureus Smith infected in C3H mouse assessed as eradication at 6.25 mg/kg/day, iv administered within 15 mins of infection assessed per gram of kidney measured after 48 hrs by organ burden assay relative to control; type: functional
Staphylococcus aureus [10] = experiment: as §1, with “as” for “as log”, “reduction of number of” for “reduction in”, “thigh” for “thigh at 5 mg/kg, po”, “hrs” for “hrs by organ burden assay”; type: functional
Staphylococcus aureus [11] = experiment: Antibacterial activity against 3.6 x 10^8 CFU methicillin-resistant Staphylococcus aureus COL by dilution susceptibility test; type: functional
Staphylococcus aureus [12] = experiment: Antibacterial activity against 10^9 CFU linezolid-resistant methicillin-resistant Staphylococcus aureus by dilution susceptibility test; type: functional
Staphylococcus aureus [13] = experiment: Antibacterial activity against methicillin-susceptible Staphylococcus aureus Smith infected in C3H mouse assessed as eradication at 25 mg/kg/day, po administered within 15 mins of infection assessed per gram of kidney measured after 48 hrs by organ burden assay relative to control; type: functional
Staphylococcus aureus [14] = experiment: Antibacterial activity against methicillin-resistant Staphylococcus aureus COL infected in iv dosed DBA/2 mouse localized infection model assessed as reduction of number of CFU per gram of thigh administered 2 hrs postinfection thrice daily for 1 day and once daily for 1 day measured after 48 hrs relative to control; type: functional
Staphylococcus aureus [15] = experiment: Antibacterial activity against methicillin-susceptible Staphylococcus aureus Smith infected in C3H mouse assessed as eradication at 25 mg/kg/day, iv administered within 15 mins of infection assessed per gram of kidney measured after 48 hrs by organ burden assay relative to control; type: functional
Streptococcus pneumoniae = experiment: Antibacterial activity against penicillin-resistant Streptococcus pneumoniae; type: functional, organism-based
[16] = Fraction unbound in Staphylococcus aureus-infected mouse localized thigh infection model plasma at 25 mg/kg; type: ADME, organism-based; design: dose 25 mg/kg; conditions: read-out: PPB
Staphylococcus aureus [17] = experiment: Antibacterial activity against methicillin-susceptible Staphylococcus aureus Smith infected in po dosed C3H mouse localized infection model assessed as reduction of number of CFU per gram of kidney administered 15 mins after infection measured after 48 hrs relative to control; type: functional
Haemophilus influenzae = experiment: Antibacterial activity against Haemophilus influenzae by dilution susceptibility test; type: functional
Staphylococcus aureus [18] = experiment: Antibacterial activity against methicillin-susceptible Staphylococcus aureus Smith infected in C3H mouse assessed as eradication at 6.25 mg/kg/day, po administered within 15 mins of infection assessed per gram of kidney measured after 48 hrs by organ burden assay relative to control; type: functional
Staphylococcus aureus [19] = experiment: Antibacterial activity against methicillin-susceptible Staphylococcus aureus Smith by dilution susceptibility test; type: functional
Staphylococcus aureus [20] = experiment: Antibacterial activity against methicillin-susceptible Staphylococcus aureus Smith infected in C3H mouse assessed as reduction in log number of CFU at 6.25 mg/kg/day, iv administered within 15 mins of infection measured after 48 hrs by organ burden assay relative to control; type: functional
Staphylococcus aureus [21] = experiment: Antibacterial activity against methicillin-susceptible Staphylococcus aureus Smith infected in C3H mouse assessed as reduction in log number of CFU at 3.12 mg/kg/day, po administered within 15 mins of infection measured after 48 hrs by organ burden assay relative to control; type: functional
Moraxella catarrhalis = experiment: Antibacterial activity against Moraxella catarrhalis by dilution susceptibility test; type: functional
Staphylococcus aureus [22] = experiment: Antibacterial activity against methicillin-susceptible Staphylococcus aureus Smith infected in C3H mouse assessed as reduction in log number of CFU at 3.12 mg/kg/day, iv administered within 15 mins of infection measured after 48 hrs by organ burden assay relative to control; type: functional
Staphylococcus aureus [23] = experiment: Antibacterial activity against methicillin-susceptible Staphylococcus aureus Smith infected in C3H mouse assessed as reduction in log number of CFU at 12.5 mg/kg/day, po administered within 15 mins of infection measured after 48 hrs by organ burden assay relative to control; type: functional
Staphylococcus aureus [24] = experiment: Antibacterial activity against methicillin-susceptible Staphylococcus aureus Smith infected in C3H mouse assessed as eradication at 3.12 mg/kg/day, iv administered within 15 mins of infection assessed per gram of kidney measured after 48 hrs by organ burden assay relative to control; type: functional
Staphylococcus aureus [25] = experiment: Antibacterial activity against methicillin-susceptible Staphylococcus aureus Smith infected in C3H mouse assessed as eradication at 3.12 mg/kg/day, po administered within 15 mins of infection assessed per gram of kidney measured after 48 hrs by organ burden assay relative to control; type: functional
Staphylococcus aureus [26] = experiment: as §1, with “at 10” for “at 5”, “mg/kg, iv” for “mg/kg, po”, “for 1 day” for “for 5 days”; type: functional
Staphylococcus aureus [27] = experiment: Antibacterial activity against linezolid-resistant methicillin-resistant Staphylococcus aureus infected in po dosed C3H mouse localized infection model assessed as reduction of number of CFU per gram of thigh administered 2 hrs postinfection thrice daily for 1 day and once daily for 5 days measured after 48 hrs relative to control; type: functional; conditions: Thigh muscle
Staphylococcus aureus [28] = experiment: Antibacterial activity against methicillin-susceptible Staphylococcus aureus Smith infected in iv dosed C3H mouse localized infection model assessed as reduction of number of CFU per gram of kidney administered 15 mins after infection measured after 48 hrs relative to control; type: functional
Staphylococcus aureus [29] = experiment: as §1, with “at 10” for “at 5”; type: functional
[30] = Bioavailability in Staphylococcus aureus-infected mouse localized thigh infection model at 25 mg/kg; type: ADME, organism-based; conditions: in vivo
Staphylococcus aureus [31] = experiment: Antibacterial activity against methicillin-susceptible Staphylococcus aureus Smith infected in C3H mouse assessed as reduction in log number of CFU at 12.5 mg/kg/day, iv administered within 15 mins of infection measured after 48 hrs by organ burden assay relative to control; type: functional
Staphylococcus aureus [32] = experiment: Antibacterial activity against linezolid-resistant methicillin-resistant Staphylococcus aureus infected in C3H mouse localized infection model assessed as log reduction in CFU per gram of thigh at 100 mg/kg measured after 48 hrs by organ burden assay relative to control; type: functional
Staphylococcus aureus [33] = experiment: Antibacterial activity against methicillin-susceptible Staphylococcus aureus Smith infected in C3H mouse assessed as renal sterilization at 25 mg/kg/day, po administered 15 mins postinfection; type: functional, organism-based

Structure (SMILES): N#C[C@]1(c2ccc(-c3ccc(N4C[C@H](Cn5ccnn5)OC4=O)cc3F)cn2)[C@@H]2CNC[C@@H]21
- Activity (Staphylococcus aureus [1]): 5.23
- Activity (Enterococcus): Active
- Activity (Staphylococcus aureus [2]): 4.59
- Activity (Staphylococcus aureus [3]): 0%
- Activity (Staphylococcus aureus [4]): Active
- log10cfu (Staphylococcus aureus [5]): 2
- log10cfu (Staphylococcus aureus [6]): 2.4
- Activity (Staphylococcus aureus [7]): 0%
- Activity (Staphylococcus aureus [8]): 2.63
- Activity (Staphylococcus aureus [9]): 0%
- ED99 (Staphylococcus aureus [10]): 4.2 mg/kg
- MIC (Staphylococcus aureus [11]): 0.125 µg/mL (≈ 0.281 µM)
- MIC (Staphylococcus aureus [12]): 1 µg/mL (≈ 2.24 µM)
- Activity (Staphylococcus aureus [13]): 0%
- ED99 (Staphylococcus aureus [14]): 5.6 mg/kg
- Activity (Staphylococcus aureus [15]): 0%
- Activity (Streptococcus pneumoniae): Active
- fraction unbound [16]: 0.19
- ED99 (Staphylococcus aureus [17]): 4.9 mg/kg
- MIC90 (Haemophilus influenzae): 2 µg/mL (≈ 4.49 µM)
- Activity (Staphylococcus aureus [18]): 0%
- MIC (Staphylococcus aureus [19]): 0.125 µg/mL (≈ 0.281 µM)
- Activity (Staphylococcus aureus [20]): 2.03
- Activity (Staphylococcus aureus [21]): -0.26
- MIC90 (Moraxella catarrhalis): 0.5 µg/mL (≈ 1.12 µM)
- Activity (Staphylococcus aureus [22]): 0.06
- Activity (Staphylococcus aureus [23]): 2.93
- Activity (Staphylococcus aureus [24]): 0%
- Activity (Staphylococcus aureus [25]): 0%
- log10cfu (Staphylococcus aureus [26]): 1.5
- ED99 (Staphylococcus aureus [27]): 10.2 mg/kg
- ED99 (Staphylococcus aureus [28]): 6.3 mg/kg
- log10cfu (Staphylococcus aureus [29]): 3.7
- bioavailability [30]: 30%
- Activity (Staphylococcus aureus [31]): 4.46

Structure (SMILES): CC(=O)NC[C@H]1CN(c2ccc(N3CCOCC3)c(F)c2)C(=O)O1 [LINEZOLID]
- Activity (Staphylococcus aureus [1]): 6.07
- Activity (Staphylococcus aureus [2]): 4.27
- Activity (Staphylococcus aureus [3]): 0%
- log10cfu (Staphylococcus aureus [5]): 2
- log10cfu (Staphylococcus aureus [6]): 2.4
- Activity (Staphylococcus aureus [7]): 0%
- Activity (Staphylococcus aureus [8]): 1.44
- Activity (Staphylococcus aureus [9]): 0%
- ED99 (Staphylococcus aureus [10]): 5.2 mg/kg
- MIC (Staphylococcus aureus [11]): 1 µg/mL (≈ 2.96 µM)
- MIC (Staphylococcus aureus [12]): 64 µg/mL (≈ 190 µM)
- Activity (Staphylococcus aureus [13]): 100%
- ED99 (Staphylococcus aureus [14]): 6.9 mg/kg
- Activity (Staphylococcus aureus [15]): 0%
- fraction unbound [16]: 0.68
- log10cfu (Staphylococcus aureus [32]): 2.5
- ED99 (Staphylococcus aureus [17]): 7 mg/kg
- Activity (Staphylococcus aureus [18]): 0%
- Activity (Staphylococcus aureus [33]): Active
- Activity (Staphylococcus aureus [20]): -0.12
- Activity (Staphylococcus aureus [21]): -0.53
- Activity (Staphylococcus aureus [22]): -0.27
- Activity (Staphylococcus aureus [23]): 2.71
- Activity (Staphylococcus aureus [24]): 0%
- Activity (Staphylococcus aureus [25]): 0%
- log10cfu (Staphylococcus aureus [26]): 1.5
- ED99 (Staphylococcus aureus [27]): 85 mg/kg
- ED99 (Staphylococcus aureus [28]): 12 mg/kg
- log10cfu (Staphylococcus aureus [29]): 3.7
- Activity (Staphylococcus aureus [31]): 1.44
